Test results: ChEMBL document CHEMBL3758115, “Bacaryolanes A-C, Rare Bacterial Caryolanes from a Mangrove Endophyte” (2015)

Legend:
Bacillus spizizenii [1] = test: Antibacterial activity against Bacillus subtilis ATCC 6633 at 50 ug/disk after 24 hrs; type: functional; conditions: ATCC 6633, 24 h, read-out: IZ
Bacillus spizizenii [2] = test: Antibacterial activity against Bacillus subtilis ATCC 6633 at 0.25 ug/disk after 24 hrs; type: functional; conditions: ATCC 6633, 24 h, read-out: IZ

CC1(C)C[C@@H]2[C@@H]1[C@@H](O)C[C@@]1(C)CCC[C@]2(O)C1
zone of inhibition at 50 µg/disc (Bacillus spizizenii [1]): 10 mm

O=C(N[C@H](CO)[C@H](O)c1ccc([N+](=O)[O-])cc1)C(Cl)Cl [CHLORAMPHENICOL]
zone of inhibition at 0.25 µg/disc (Bacillus spizizenii [2]): 28 mm
